The text below walks through data of US9174964B2, “AMPK-activating piperidinyloxy-substituted 2,3-dihydro-1H-indene-1-amine compounds and pharmaceutical compositions including the same” (Rigel Pharmaceuticals, Inc., priority 2007, dated 2015).

SMILES strings stand for the structures.

The first experiment deals with AMPK. The experiment can be described thus: AMPK activation, enzyme-linked immunosorbent assay. The format is biochemical. The following applies: Table 2, AMPK activation, ELISA. The protocol: Compounds 1-50 of Table 1 were assayed for their ability to activate AMPK using an enzyme-linked immunosorbent assay.
Compounds 51-60 of Table 1 were assayed for their ability to activate AMPK using an enzyme-linked immunosorbent assay.
Compounds 61-131 of Table 1 were assayed for their ability to activate AMPK using an enzyme-linked immunosorbent assay.
Compounds 137-141 and 143-155 of Table 1 were assayed for their ability to activate AMPK using an enzyme-linked immunosorbent assay.
Compounds 156-160 of Table 1 were assayed for their ability to activate AMPK using an enzyme-linked immunosorbent assay.
As to `COC(=O)c1ccc(CN2CCC(NC(=O)c3ccc(OC4CCN(c5ccc(C(F)(F)F)cc5)CC4)nc3)CC2)cc1` [Compound 45, methyl 4-((4-(6-(1-(4-(trifluoromethyl)phenyl)piperidin-4-yloxy)nicotinamido)piperidin-1-yl)methyl)benzoate], the EC50 (commonly the concentration giving half of the maximal effect) is > 10000 nM. In the case of `O=C(NC1CCN(Cc2cccnc2)CC1)c1cncc(OC2CCN(c3ccc(C(F)(F)F)cc3)CC2)c1` [Compound 18, N-(1-(pyridin-3-ylmethyl)piperidin-4-yl)-5-(1-(4-(trifluoromethyl)phenyl)piperidin-4-yloxy)nicotinamide], the EC50 is < 100 nM. On to `N#Cc1ccc(CN2CCC(NC(=O)c3ccnc(OC4CCN(c5ccc(C(F)(F)F)cc5)CC4)c3)CC2)cc1` [Compound 21, N-(1-(4-cyanobenzyl)piperidin-4-yl)-2-(1-(4-(trifluoromethyl)phenyl)piperidin-4-yloxy)isonicotinamide], for which the half-maximal effective concentration (EC50) lay in the range of 100 to 500 nM.

Still in this experiment, the particulars now being: Table 3, AMPK activation, ELISA.
In the case of `CC(C)(C)OC(=O)N1CCC(NS(=O)(=O)c2ccc(OC3CCN(c4ccc(C(F)(F)F)cc4)CC3)nc2)CC1` [Compound 54, tert-butyl 4-(6-(1-(4-(trifluoromethyl)phenyl)piperidin-4-yloxy)pyridine-3-sulfonamido)piperidine-1-carboxylate], the EC50 was 1000 to 5000 nM. With `N#Cc1ccc(CN2CCC(NS(=O)(=O)c3ccc(OC4CCN(c5ccc(C(F)(F)F)cc5)CC4)nc3)CC2)cc1` [Compound 56, N-(1-(4-cyanobenzyl)piperidin-4-yl)-6-(1-(4-(trifluoromethyl)phenyl)piperidin-4-yloxy)pyridine-3-sulfonamide], the EC50 fell in the range of 5000 to 50000 nM. Still for that read-out and setting: the same measure for `O=S(=O)(NC1CCNCC1)c1ccc(OC2CCN(c3ccc(C(F)(F)F)cc3)CC2)nc1` [Compound 55, N-(piperidin-4-yl)-6-(1-(4-(trifluoromethyl)phenyl)piperidin-4-yloxy)pyridine-3-sulfonamide]: 1000 to 5000 nM.

The experiment is the same for the next values; noted with them: Table 4, AMPK activation, ELISA.
`N#Cc1ccccc1CN1CCC(NC(=O)c2cc3ccc(OC4CCN(c5ccc(OC(F)(F)F)cc5)CC4)cc3o2)CC1` [Compound 97, N-(1-(2-cyanobenzyl)piperidin-4-yl)-6-(1-(4-(trifluoromethoxy)phenyl)piperidin-4-yloxy)benzofuran-2-carboxamide]: the EC50 was < 100 nM. Regarding `O=C(NC1CCN(Cc2ccc(C(F)(F)F)cc2)CC1)c1cc2ccc(OC3CCN(c4ccc(C(F)(F)F)cc4)CC3)cc2o1` [Compound 99, N-(1-(4-(trifluoromethyl)benzyl)piperidin-4-yl)-6-(1-(4-(trifluoromethyl)phenyl)piperidin-4-yloxy)benzofuran-2-carboxamide], the EC50 was < 100 nM. Take `O=C(N[C@H]1CCNC1)c1cc2cc(OC3CCN(Cc4ccc(Cl)cc4)CC3)ccc2o1` [Compound 128, (S)-5-(1-(4-chlorobenzyl)piperidin-4-yloxy)-N-(pyrrolidin-3-yl)benzofuran-2-carboxamide]: the concentration for a half-maximal effect (EC50) was > 50000 nM.

With `CC(C)(C)OC(=O)N1CC[C@@H](NC(=O)c2cc3cc(OC4CCN(c5ccc(C(F)(F)F)cc5)CC4)ccc3o2)C1` [Compound 120, (R)-tert-butyl 3-(5-(1-(4-(trifluoromethyl)phenyl)piperidin-4-yloxy)benzofuran-2-carboxamido)pyrrolidine-1-carboxylate], the concentration for a half-maximal effect (EC50) is 1000 to 10000 nM. Regarding `CN(C(=O)c1cc2cc(OC3CCN(c4ccc(C(F)(F)F)cc4)CC3)ccc2o1)C1CCN(Cc2ccc(C#N)cc2)CC1` [Compound 107, N-(1-(4-cyanobenzyl)piperidin-4-yl)-N-methyl-5-(1-(4-(trifluoromethyl)phenyl)piperidin-4-yloxy)benzofuran-2-carboxamide], the EC50 was < 100 nM. The same measure, in the same setting: the same measure for `NC(=O)c1ccc(CN2CCC(Oc3ccc4oc(C(=O)NC5CCN(Cc6ccncc6)CC5)cc4c3)CC2)cc1` [Compound 131, 5-(1-(4-carbamoylbenzyl)piperidin-4-yloxy)-N-(1-(pyridin-4-ylmethyl)piperidin-4-yl)benzofuran-2-carboxamide]: 1000 to 10000 nM.
